We go through 30 compounds from US10005792B2, “Aminoindane-, aminotetrahydronaphthalene- and aminobenzocyclobutane-derived PRMT5-inhibitors” (CTXT PTY LTD, priority 2014, dated 2018).

Structures are written as SMILES. Structures can show the parent of a compound that is named as a salt.

Full-length PRMT5 enzyme co-expressed with MEP50, sequence (O14744 whole entry): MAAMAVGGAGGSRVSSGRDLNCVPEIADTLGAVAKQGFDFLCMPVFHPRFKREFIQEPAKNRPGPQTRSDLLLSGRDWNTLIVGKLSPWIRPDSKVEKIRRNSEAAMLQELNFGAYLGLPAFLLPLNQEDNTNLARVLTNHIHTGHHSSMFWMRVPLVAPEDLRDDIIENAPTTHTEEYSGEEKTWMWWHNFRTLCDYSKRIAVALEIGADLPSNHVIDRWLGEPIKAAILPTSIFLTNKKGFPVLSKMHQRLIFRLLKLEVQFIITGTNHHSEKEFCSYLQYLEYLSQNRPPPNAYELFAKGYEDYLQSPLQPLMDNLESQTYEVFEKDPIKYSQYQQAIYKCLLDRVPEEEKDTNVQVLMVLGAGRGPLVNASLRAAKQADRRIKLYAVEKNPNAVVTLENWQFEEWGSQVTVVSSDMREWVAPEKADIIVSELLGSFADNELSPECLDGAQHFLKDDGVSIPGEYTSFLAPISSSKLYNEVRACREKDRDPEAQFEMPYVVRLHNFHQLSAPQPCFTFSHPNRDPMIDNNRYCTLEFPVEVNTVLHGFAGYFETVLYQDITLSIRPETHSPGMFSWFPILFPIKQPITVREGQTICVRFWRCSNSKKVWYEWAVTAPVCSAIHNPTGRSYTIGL
Full-length PRMT5 enzyme co-expressed with MEP50, sequence (Q9BQA1 whole entry partner): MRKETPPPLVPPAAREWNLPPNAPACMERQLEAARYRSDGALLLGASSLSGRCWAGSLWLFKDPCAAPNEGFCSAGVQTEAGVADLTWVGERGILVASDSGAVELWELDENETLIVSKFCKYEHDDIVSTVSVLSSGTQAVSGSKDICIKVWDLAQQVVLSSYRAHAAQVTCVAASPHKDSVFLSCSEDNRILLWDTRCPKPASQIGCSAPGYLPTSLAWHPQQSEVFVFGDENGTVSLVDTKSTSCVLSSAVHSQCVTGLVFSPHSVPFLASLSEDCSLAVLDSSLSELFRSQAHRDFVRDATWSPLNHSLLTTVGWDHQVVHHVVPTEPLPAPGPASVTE

This experiment addresses Full-length PRMT5 enzyme co-expressed with MEP50 (Homo sapiens (Human), UniProt O14744). The experiment is described as follows: Revised PRMT5 Biochemical Assay. The following applies: 1 μM histone H4 derived peptide substrate, 1 μM S-Adenosyl methionine, 4 hours at 37 degree Celsius, Transcreener EPIGEN fluorescence polarisation. As for the experimental part: Compounds of the invention may be tested for in vitro activity in the following assay: A histone H4 derived peptide is used as substrate (amino acid sequence: […]NH2). Full-length PRMT5 enzyme (NCBI Reference sequence NP-006100.2) was co-expressed with Hiss-MEP50 in insect cells and purified via Nickel immobilized metal affinity and gel filtration chromatography (“the enzyme”).
The 6 μL reactions are run in Greiner brand black 384-well low volume assay plates. All reactions contained assay buffer (phosphate buffered saline, 0.01% (v/v) Tween-20, 0.01% (w/v) albumin from chicken egg white, 1 mM Dithiothreitol, 1 μM peptide substrate, 1 μM S-Adenosyl methionine, and 15 ng/reaction enzyme, with the enzyme being omitted from negative control reactions. Compounds were added in a volume of 100 nL from dilution series prepared in DMSO, positive and negative control reactions receiving the same volume DMSO without compound. The plates were sealed with adhesive seals and incubated for 4 hours at 37 degree Celsius. Reaction progress was measured using the Transcreener™ EPIGEN methyltransferase assay (BellBrook Labs, Madison, Wis.) as recommended by the manufacturer. To each reaction 2 μL detection mix were added, containing coupling enzymes, fluorescence polarisation tracer, and AMP antibody. Plates were incubated for 90 minutes before being read on a PerkinElmer EnVision™ plate reader in fluorescence polarisation mode. IC50 values were obtained from the raw readings by calculating percent inhibition (% I) for each reaction relative to controls on the same plate (% I=(I−CN)/(CP−CN) where CN/CP are the averages of the negative/positive reactions, respectively), then fitting the % I data vs. compound concentration [I] to % I=([…]) where A is the lower asymptote, B is the upper asymptote, C is the IC50 value, and D is the slope.
`O=C(NCC(O)CNC1Cc2ccccc2C1)c1ccc(C(=O)N2CCCCC2)nc1` (racemic) [Compound 67, N-(3-((2,3-dihydro-1H-inden-2-yl)amino)-2-hydroxypropyl)-6-(piperidine-1-carbonyl)nicotinamide]: half-maximal inhibition (IC50) required 6870 nM. That is a single-digit micromolar value.

For the compound `CCCOc1ccccc1C(=O)NCC(O)CNC1Cc2ccccc2C1` (racemic) [Compound 73, N-(3-((2,3-dihydro-1H-inden-2-yl)amino)-2-hydroxypropyl)-2-propoxybenzamide], the IC50 was 4380 nM.

In turn, `CC(C)Oc1ccccc1C(=O)NCC(O)CNC1Cc2ccccc2C1` (racemic) [Compound 74, N-(3-((2,3-dihydro-1H-inden-2-yl)amino)-2-hydroxypropyl)-2-isopropoxybenzamide] showed an IC50 of 3130 nM.

In turn, `COCc1ccccc1C(=O)NCC(O)CNC1Cc2ccccc2C1` (racemic) [Compound 79, N-(3-((2,3-dihydro-1H-inden-2-yl)amino)-2-hydroxypropyl)-2-(methoxymethyl)benzamide] displayed an IC50 of 24000 nM. This IC50 lies about 7.7-fold higher than the previous one.

As to `O=C(NCC(O)CNC1Cc2ccccc2C1)c1ccn(Cc2ccccc2)c(=O)c1` (racemic) [Compound 82, 1-benzyl-N-(3-((2,3-dihydro-1H-inden-2-yl)amino)-2-hydroxypropyl)-2-oxo-1,2-dihydropyridine-4-carboxamide], the IC50 was 1810 nM. Compared with the last compound, the IC50 is about 13-fold lower.

In the case of `CC(=O)N1CCN(C(=O)Cc2ccc(C(=O)NCC(O)CNC3Cc4ccccc4C3)cc2)CC1` (racemic) [Compound 83, 4-(2-(4-acetylpiperazin-1-yl)-2-oxoethyl)-N-(3-((2,3-dihydro-1H-inden-2-yl)amino)-2-hydroxypropyl)benzamide], the IC50 was determined as 3460 nM.

On to `CC(=O)N1CCN(C(=O)c2ccc(C(=O)NCC(O)CNC3Cc4ccccc4C3)cc2)CC1` (racemic) [Compound 84, 4-(4-acetylpiperazine-1-carbonyl)-N-(3-((2,3-dihydro-1H-inden-2-yl)amino)-2-hydroxypropyl)benzamide], for which the IC50 stood at 585 nM.

Turning to `Cn1ccc(C(=O)NCC(O)CNC2Cc3ccccc3C2)cc1=O` (racemic) [Compound 85, N-(3-((2,3-dihydro-1H-inden-2-yl)amino)-2-hydroxypropyl)-1-methyl 2-oxo-1,2-dihydropyridine-4-carboxamide], it took 7680 nM to reach half-maximal inhibition (IC50).

Take `O=C(NCC(O)CNC1Cc2ccccc2C1)c1ccc2c(c1)CN(C(=O)CC1CC1)C2` (racemic) [Compound 92, 2-(2-cyclopropylacetyl)-N-(3-((2,3-dihydro-1H-inden-2-yl)amino)-2-hydroxypropyl)isoindoline-5-carboxamide]: the IC50 came out at 1380 nM.

`O=C(NCC(O)CNC1Cc2ccccc2C1)c1ccc2c(c1)CN(C(=O)CC1CC1)CC2` (racemic) [Compound 93, 2-(2-cyclopropylacetyl)-N-(3-((2,3-dihydro-1H-inden-2-yl)amino)-2-hydroxypropyl)-1,2,3,4-tetrahydroisoquinoline-7-carboxamide] had an IC50 of 505 nM.

In turn, `O=C(NCC(O)CNC1Cc2ccccc2C1)c1ccc2c(c1)CCN(C(=O)CC1CC1)C2` (racemic) [Compound 94, 2-(2-cyclopropylacetyl)-N-(3-((2,3-dihydro-1H-inden-2-yl)amino)-2-hydroxypropyl)-1,2,3,4-tetrahydroisoquinoline-6-carboxamide] registered a concentration for half-maximal inhibition (IC50) of 1350 nM.

Turning to `CC(=O)N1CCc2cc(C(=O)NCC(O)CNC3Cc4ccccc4C3)ccc2C1` (racemic) [Compound 95, 2-acetyl-N-(3-((2,3-dihydro-1H-inden-2-yl)amino)-2-hydroxypropyl)-1,2,3,4-tetrahydroisoquinoline-6-carboxamide], the IC50 is 931 nM.

`CC(=O)N1CCc2ccc(C(=O)NCC(O)CNC3Cc4ccccc4C3)cc2C1` (racemic) [Compound 96, 2-acetyl-N-(3-((2,3-dihydro-1H-inden-2-yl)amino)-2-hydroxypropyl)-1,2,3,4-tetrahydroisoquinoline-7-carboxamide] had a half-maximal inhibitory concentration (IC50) of 733 nM.

The compound `O=C(NCC(O)CNC1Cc2ccccc2C1)c1ccccc1OCC(F)(F)F` (racemic) [Compound 97, N-(3-((2,3-dihydro-1H-inden-2-yl)amino)-2-hydroxypropyl)-2-(2,2,2-trifluoroethoxy)benzamide] had an IC50 of 4320 nM.

`C[C@@H]1COC[C@@H](C)N1C(=O)c1ccc(C(=O)NCC(O)CNC2Cc3ccccc3C2)cc1` (mixture of isomers) [Compound 101, N-(3-((2,3-dihydro-1H-inden-2-yl)amino)-2-hydroxypropyl)-4-((3R,5R)-3,5-dimethylmorpholine-4-carbonyl)benzamide] showed an IC50 of 457 nM.

For the compound `CC(=O)N1CCC(Nc2cccc(C(=O)NC[C@@H](O)CNC3Cc4ccccc4C3)c2)CC1` [Compound 42, (S)-3-((1-Acetylpiperidin-4-yl)amino)-N-(3-((2,3-dihydro-1H-inden-2-yl)amino)-2-hydroxypropyl)benzamide], 137 nM corresponded to half-maximal inhibition (IC50).

In turn, `CN(c1cc(C(=O)NCC(O)CNC2Cc3ccccc3C2)ccn1)C1CCCC1` (stereo not drawn) [Compound 43, 2-(cyclopentyl(methyl)amino)-N-(3-((2,3-dihydro-1H-inden-2-yl)amino)-2-hydroxypropyl)isonicotinamide] yielded an IC50 of 1010 nM.

In turn, `O=C(NCC(O)CNC1Cc2ccccc2C1)c1ccnc(NC2CCCC2)c1` (stereo not drawn) [Compound 44, 2-(cyclopentylamino)-N-(3-((2,3-dihydro-1H-inden-2-yl)amino)-2-hydroxypropyl)isonicotinamide] displayed an IC50 of 373 nM. This IC50 lies about 2.7-fold lower than the previous one.

With `O=C(NCC(O)CNC1Cc2ccccc2C1)c1cc(-c2ccccn2)[nH]n1` (stereo not drawn) [Compound 45, N-(3-((2,3-dihydro-1H-inden-2-yl)amino)-2-hydroxypropyl)-5-(pyridin-2-yl)-1H-pyrazole-3-carboxamide], inhibition was half-maximal at 12800 nM (IC50).

With `O=C(NCC(O)CNC1Cc2ccccc2C1)c1cnn(-c2cccnc2)c1` (stereo not drawn) [Compound 46, N-(3-((2,3-dihydro-1H-inden-2-yl)amino)-2-hydroxypropyl)-1-(pyridin-3-yl)-1H-pyrazole-4-carboxamide], 4990 nM corresponded to half-maximal inhibition (IC50).

Take `O=C(NCC(O)CNC1Cc2ccccc2C1)c1ccnc(N2CCOCC2)c1` (stereo not drawn) [Compound 47, N-(3-((2,3-dihydro-1H-inden-2-yl)amino)-2-hydroxypropyl)-2-morpholinoisonicotinamide]: the IC50 stood at 11400 nM.

`O=C(NCC(O)CNC1Cc2ccccc2C1)c1ccnc(N2CCCC2)c1` (stereo not drawn) [Compound 48, N-(3-((2,3-dihydro-1H-inden-2-yl)amino)-2-hydroxypropyl)-2-(pyrrolidin-1-yl)isonicotinamide] came in with an IC50 of 4780 nM. Against the preceding compound, the IC50 is about 2.4-fold lower.

`O=C(NCC(O)CNC1Cc2ccccc2C1)c1ccnc(-n2cccn2)c1` (stereo not drawn) [Compound 49, N-(3-((2,3-dihydro-1H-inden-2-yl)amino)-2-hydroxypropyl)-2-(1H-pyrazol-1-yl)isonicotinamide]: the IC50 stood at 25300 nM.

For the compound `CC(=O)N1CCC(Oc2cc(C(=O)NCC(O)CNC3Cc4ccccc4C3)ccn2)CC1` (stereo not drawn) [Compound 50, 2-((1-Acetylpiperidin-4-yl)oxy)-N-(3-((2,3-dihydro-1H-inden-2-yl)amino)-2-hydroxypropyl)isonicotinamide], the IC50 came to 466 nM.

As to `O=C(NCC(O)CNC1Cc2ccccc2C1)c1ccnc(OC2CCNCC2)c1` (stereo not drawn) [Compound 51, N-(3-((2,3-dihydro-1H-inden-2-yl)amino)-2-hydroxypropyl)-2-(piperidin-4-yloxy)isonicotinamide], half-maximal inhibition (IC50) was put at 709 nM.

Compound `CC(=O)N1CCC(Nc2cncc(C(=O)NCC(O)CNC3Cc4ccccc4C3)n2)CC1` (stereo not drawn) [Compound 52, 6-((1-Acetylpiperidin-4-yl)amino)-N-(3-((2,3-dihydro-1H-inden-2-yl)amino)-2-hydroxypropyl)pyrazine-2-carboxamide] gave an IC50 of 74600 nM.

With `CC(=O)N1CCC(Nc2nccc(C(=O)NCC(O)CNC3Cc4ccccc4C3)n2)CC1` (stereo not drawn) [Compound 54, 2-((1-Acetylpiperidin-4-yl)amino)-N-(3-((2,3-dihydro-1H-inden-2-yl)amino)-2-hydroxypropyl)pyrimidine-4-carboxamide], the IC50 was 5770 nM. This IC50 lies about 13-fold lower than the previous one.

`CC(=O)N1CCC(Nc2cccc(C(=O)NCC(O)CNC3Cc4ccccc4C3)n2)CC1` (stereo not drawn) [Compound 57, 6-((1-Acetylpiperidin-4-yl)amino)-N-(3-((2,3-dihydro-1H-inden-2-yl)amino)-2-hydroxypropyl)picolinamide] showed an IC50 of 2530 nM.

With `CC(=O)N1CC(Nc2cc(C(=O)NCC(O)CNC3Cc4ccccc4C3)ncn2)C1` (stereo not drawn) [Compound 58, 6-((1-Acetylazetidin-3-yl)amino)-N-(3-((2,3-dihydro-1H-inden-2-yl)amino)-2-hydroxypropyl)pyrimidine-4-carboxamide 2,2,2-trifluoroacetic acid salt], it took 883 nM to reach half-maximal inhibition (IC50).

The compound `CC(=O)N1CCC(Nc2cc(C(=O)NCC(O)CNC3Cc4ccccc4C3)ncn2)CC1` (stereo not drawn) [Compound 59, 6-((1-Acetylpiperidin-4-yl)amino)-N-(3-((2,3-dihydro-1H-inden-2-yl)amino)-2-hydroxypropyl)pyrimidine-4-carboxamide 2,2,2-trifluoroacetic acid salt] returned an IC50 of 487 nM.
